Molecules are shown by their SMILES. Structures can show the parent of a compound that is named as a salt.

For data set [1], the system named is motility of the gastrointestinal (GI) tract. The experiment in a line: Animal models of gastrointestinal motility. Format: in vivo.
Data set [2] concerns the target T1, human mu opioid receptor (Homo sapiens, UniProt P35372). Description: biochemical. The note with it: read-out: intrinsic activity (IA).
Data set [3] addresses T1, human mu opioid receptor. The experiment in a line: Radioligand binding assay on human mu opioid receptor ([3H]-Diprenorphine displacement, CHO-K1 membranes). The conditions noted are these: [3H]-Diprenorphine at 0.5 nM.
The nature of data set [4]: Solid state stability assessment. In kind it is physicochemical. The note with it: for changes in DSC, TGA, XRPD results after storage: 4 weeks storage at elevated temperature and humidity. As to the method: Samples of the sulfate salt of the invention were stored in multiple open glass vials at 20° C. and 60% relative humidity (RH) and at 40° C. and 75% RH. At specific intervals, the contents of a representative vial was removed and analyzed by DSC, TGA, PXRD, and by HPLC for chemical purity. […] The chemical purity of the stored samples by HPLC was unchanged at 99.7%.

Data set [5] relates to loperamide-induced delayed gastric emptying. The experiment in a line: Rat gastric emptying assay (reversal of loperamide-induced delayed gastric emptying). The conditions noted are these: administered orally, loperamide 1 mg/kg s.c. In kind it is in vivo. As to the method: In this assay the efficacy of test compounds was evaluated in a model of gastrointestinal transit, which evaluates peripheral activity. This study was approved by the Institutional Animal Care and Use Committee at […]. and conformed to the Guide for the Care and Use of Laboratory Animals published by the National Academy of Sciences (©1996). Test compounds were evaluated in the rat gastric emptying assay to determine their ability to reverse loperamide-induced delayed gastric emptying. Rats were fasted up overnight prior to administration of test compounds or vehicle by intravenous, subcutaneous, intramuscular or oral routes of administration at doses ranging from 0.001 to about 30 milligrams/kilogram (mg/kg). The administration of test compound was followed by subcutaneous administration of loperamide at a dose of 1 mg/kg or vehicle. […] Gastric weight was then determined after removal of the ligatures. Data was analyzed using the GraphPad Prism Software package (GraphPad Software, Inc., San Diego, Calif.). Percent reversal curves were constructed by non-linear regression analysis using the sigmoidal dose response (variable slope) model and best-fit ID50 values were calculated. […]

A short description of data set [6]: Dynamic moisture sorption assessment. Format: physicochemical. As to the method:
Dynamic moisture sorption (DMS) assessment was performed at 25° C. using a VTI atmospheric microbalance, SGA-100 system (VTI Corp., Hialeah, Fla. 33016). […] A typical DMS analysis consisted of three scans: ambient to 2% relative humidity (RH), 2% RH to 90% RH, 90% RH to 5% RH at a scan rate of 5% RH/step. The mass was measured every two minutes and the RH was changed to the next value (±5% RH) when the mass of the sample was stable to within 0.02% for 5 consecutive points. Representative DMS traces for samples of a crystalline sulfate salt and of a crystalline hydrate of a sulfate salt of compound 1 are shown in FIGS. 3 and 6, respectively.

T1 sequence (P35372 whole entry): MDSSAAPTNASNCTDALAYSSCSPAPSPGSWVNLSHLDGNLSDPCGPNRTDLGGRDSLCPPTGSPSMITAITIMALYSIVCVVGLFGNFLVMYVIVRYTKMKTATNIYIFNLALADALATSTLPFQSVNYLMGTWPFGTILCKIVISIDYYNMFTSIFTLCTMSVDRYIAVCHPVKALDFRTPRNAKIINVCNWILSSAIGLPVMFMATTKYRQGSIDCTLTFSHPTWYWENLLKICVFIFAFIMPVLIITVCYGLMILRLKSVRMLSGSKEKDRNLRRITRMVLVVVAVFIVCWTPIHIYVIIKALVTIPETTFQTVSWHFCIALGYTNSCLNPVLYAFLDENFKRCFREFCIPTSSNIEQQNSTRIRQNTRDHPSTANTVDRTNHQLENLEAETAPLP

Take `NC(=O)c1cccc(C2CC3CCC(C2)N3CCN(CC2CCCCC2)C(=O)[C@@H](O)CO)c1` (stereo partly drawn) [compound 1, 3-endo-(8-{2-[cyclohexylmethyl-((S)-2,3-dihydroxy-propionyl)amino]ethyl}-8-aza-bicyclo[3.2.1]oct-3-yl)benzamide]: in data set [1], the “effect on motility of the gastrointestinal tract” value is “increase motility of the gastrointestinal (GI) tract”.

Consider `NC(=O)c1cccc(C2CC3CCC(C2)N3CCN(CC2CCCCC2)C(=O)[C@@H](O)CO)c1` (stereo partly drawn) [sulfate salt of compound 1, 3-endo-(8-{2-[cyclohexylmethyl-((S)-2,3-dihydroxy-propionyl)amino]ethyl}-8-aza-bicyclo[3.2.1]oct-3-yl)benzamide sulfate], for which the Emax on human mu opioid receptor [2] is -5%. In addition, at human mu opioid receptor [3], the Ki (in general, the dissociation constant of the complex between target and ligand, obtained from inhibition or displacement) is 0.126 nM. In addition, the “changes in DSC, TGA, XRPD results after storage” value in data set [4] (listed as crystalline sulfate salt of compound 1) was “no detectable changes”; in data set [4] (listed as sulfate salt of the invention), “no detectable change”. The “chemical purity of the stored samples by HPLC” value in data set [4] (4 weeks storage, open vials, 20° C./60% RH and 40° C./75% RH) stood at 99.7%. Further, the “chemical degradation by HPLC” value in data set [4] (storage for 4 weeks at 40° C. and 75% relative humidity) is on record as “no chemical degradation”. Besides, the “ID50, dose required for 50% reversal of the effects of loperamide” value in data set [5] is reported as 0.26 mg/kg. In data set [6] (2% to 90% relative humidity at room temperature), the “weight change/gain on moisture sorption (hygroscopicity)” value was “less than 0.3%”. For the same compound, the deliquescence entry in data set [6] (up to about 90% relative humidity at room temperature) is listed as “neither the crystalline sulfate salt of the invention nor the hydrate thereof is deliquescent”.

Source of the values: patent publication US10426766B2, “Crystalline forms of an 8-azabicyclo[3.2.1]octane compound” (THERAVANCE BIOPHARMA R&D IP, LLC, priority 2007, dated 2019).
